Experiments:
Assay type in all cases: physicochemical, human
[1] = GC/MS of blood plasma sample: number of times of freezing and thawing (Table C); conditions: for Rate of increase or decrease: detection intensity relative to 1 at 2 times; for Increase or decrease: detection intensity; for Rate of increase or decrease (second value, decrease) / Rate of increase or decrease (first value, increase): different from individual to individual, relative to 1 at 2 times; for Rate of increase or decrease (second value, decrease): individuals with decrease; for Rate of increase or decrease (first value, increase): individuals with increase
Protocol: (§1) At room temperature, 5 mL of blood from a healthy subject was taken into a blood-collecting vessel containing EDTA, and the blood-collecting vessel was inverted for mixing, then cooled, and allowed to stand at 4° C. Here, in order to investigate how the detection intensity of molecules contained in the sample was affected in a case where the time to cooling was set to 5 minutes or more as compared to that in a case where the time to cooling was set to 1 minute or less, preparations were performed under both the former condition and the latter condition. After standing, the blood sample was subjected to centrifugation under a condition of 4° C., 3000 rpm, and 15 minutes. […] After centrifugation, the blood-collecting vessel was left to stand at room temperature for 30 minutes, and the blood plasma was isolated during this 30 minutes. The obtained blood plasma sample was frozen and stored. Here, in order to investigate how the detection intensity of molecules contained in the sample was affected in cases where freezing and thawing was performed 4 times, 6 times, and 10 times after freezing as compared to that in a case where freezing and thawing was performed 2 times after freezing, freezing and thawing was performed under the respective conditions of 2, 4, 6, and 10 times.
(§2) Frozen blood plasma samples and serum samples were subjected to GC/MS or LC/MS. In GC/MS, the blood plasma samples and serum samples were subjected to methoxymation and trimethylsilylation and then introduced to GC-MS.
(§3) GC/MS was conducted using GCMS·TQ8040 (Shimadzu Corporation) that was a GC·MS equipped with AOC·20i (Shimadzu Corporation) as an autosampler.
(§4) Column: BPX5 (inner diameter of 0.25 mm, length of 30 m, and film thickness of 0.25 μm) (SGE)
(§5) Column temperature: maintained at 60° C. for 2 minutes, then raised at 15° C./min, and maintained at 330° C. for 3 minutes.
(§6) Inlet temperature: 250° C.
(§7) Carrier gas control mode: constant linear velocity of 39.0 cm/sec
(§8) Sample introduction method: split (split ratio of 30:1) Injection volume: 1 μL
(§9) Ionization method: electron ionization
(§10) Ionization current: 60 μA
(§11) Interface temperature: 280° C.
(§12) Ion source temperature: 200° C.
(§13) Mode: multiple reaction monitoring (MRM)
The rate of increase or decrease in Table C is the value of detection intensity relative to 1 that is the detection intensity in a case where the number of times of freezing and thawing is set to 2 times.

[2] = GC/MS of blood plasma sample: time from blood collection to cooling of blood (Table B); parameters: key to Rate of increase or decrease / Rate of increase or decrease (first value, increase): detection intensity relative to 1 at cooling time ≤1 min; conditions: for Rate of increase or decrease: detection intensity relative to 1 at 1 minute or less, blood collection to cooling 5 minutes; for Increase or decrease: detection intensity, blood collection to cooling 5 minutes or more vs 1 minute or less
Protocol: as §1, §2, §3, §4, §5, §6, §7, §8, §9, §10, §11, §12, §13
Table B presents compounds of which the detection intensity increased or decreased by 30% or more in a case where the time from blood collection to cooling of blood, when a blood plasma sample was analyzed by GC/MS, was set to 5 minutes or more as compared to that in a case where the time was set to 1 minute or less. The rate of increase or decrease in Table B is the value of detection intensity relative to 1 that is the detection intensity in a case where the time from blood collection to cooling is set to 1 minute or less.

[3] = GC/MS of blood plasma sample: time from blood collection to centrifugation (Table A); conditions: blood collection to centrifugation; for Rate of increase or decrease: detection intensity relative to 1 at 15 minutes; for Increase or decrease: detection intensity
In short: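 EDTA blood from a healthy subject was cooled at 4° C, centrifuged at 4° C, 3000 rpm, 15 minutes, and plasma was frozen. After methoxymation and trimethylsilylation, samples ran on GC/MS (BPX5 column, 60-330° C gradient, electron ionization, MRM). Intensity is relative to 15 minutes from collection to centrifugation.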

[4] = GC/MS of serum sample: number of times of freezing and thawing (Table I); parameters: key to Rate of increase or decrease / Rate of increase or decrease (first value, increase): detection intensity relative to 2 freeze-thaw cycles = 1; conditions: serum, GC/MS
In short: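 Serum was isolated after centrifugation at room temperature (3500 rpm, 5 min), frozen, and put through 2, 4, 6 or 10 freeze–thaw cycles. Samples were methoxymated and trimethylsilylated, then run by electron-ionization GC/MS in MRM mode on a BPX5 column (60 to 330 °C). Detection intensity is given relative to the 2-cycle sample, set as 1.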

[5] = freezing and thawing 6 times vs 2 times
[6] = freezing and thawing 10 times vs 2 times

| Increase or decrease [1, 5] | Rate of increase or decrease [2] | Increase or decrease [2] | Rate of increase or decrease ([1]; freezing and thawing 10 times) | Increase or decrease [1, 6] | Rate of increase or decrease ([3]; after 4 hours) | Increase or decrease ([3]; after 4 hours vs 15 minutes) | SMILES | other results |
| --- | --- | --- | --- | --- | --- | --- | --- | --- |
|  |  | Different from individual | 0.62 | Decrease |  |  | O=C(O)C(O)Cc1ccccc1 (stereo not shown) [3-Phenyllactic acid] | Rate of increase or decrease ([4]; detection intensity relative to 1 at 2 times, freezing and thawing 4 times): 0.68; Increase or decrease ([4]; detection intensity, freezing and thawing 4 times vs 2 times): Decrease; Rate of increase or decrease (second value, decrease) ([2]; different from individual to individual, individuals with decrease, relative to 1 at 1 minute or less, collection to cooling 5 minutes): 0.60; Rate of increase or decrease (first value, increase) ([2]; different from individual to individual, individuals with increase, relative to 1 at 1 minute or less, collection to cooling 5 minutes): 1.47 |
|  | 0.67 | Decrease | 1.63 | Increase | 1.78 | Increase | NCCc1c[nH]cn1 [Histamine] |  |
|  | 0.66 | Decrease |  |  | 17.48 | Increase | Oc1ccc(O)cc1 [Hydroquinone] | Increase or decrease ([1]; freezing and thawing 4 times vs 2 times): Different from individual; Rate of increase or decrease (second value, decrease) ([1]; freezing and thawing 4 times): 0.69; Rate of increase or decrease (first value, increase) ([1]; freezing and thawing 4 times): 3.54 |

Second part, the compound before the results:

| SMILES | Increase or decrease [1, 5] | Rate of increase or decrease [2] | Increase or decrease [2] | Rate of increase or decrease ([1]; freezing and thawing 10 times) | Increase or decrease [1, 6] | Rate of increase or decrease ([3]; after 4 hours) | Increase or decrease ([3]; after 4 hours vs 15 minutes) | other results |
| --- | --- | --- | --- | --- | --- | --- | --- | --- |
| CC(C)CC(O)C(=O)O (stereo not shown) [2-Hydroxyisocaproic acid] | Decrease | 1.31 | Increase |  |  |  |  | Rate of increase or decrease ([1]; freezing and thawing 6 times): 0.66 |
| O=c1ccn([C@H]2C[C@H](O)[C@@H](CO)O2)c(=O)[nH]1 [2′-Deoxyuridine] | Different from individual | 0.68 | Decrease |  |  |  |  | Rate of increase or decrease (second value, decrease) ([1]; freezing and thawing 6 times): 0.67; Rate of increase or decrease (first value, increase) ([1]; freezing and thawing 6 times): 1.43; Rate of increase or decrease ([3]; after 12 hours): 1.43; Increase or decrease ([3]; after 12 hours vs 15 minutes): Increase |

Reference: patent US20220146526A1, “METHOD FOR EVALUATING SAMPLE, ANALYSIS METHOD, METHOD FOR DETECTING DEGRADED SAMPLE, MARKER FOR DETECTING DEGRADED BLOOD PLASMA SAMPLE, AND MARKER FOR DETECTING DEGRADED SERUM SAMPLE” (SHIMADZU CORPORATION, priority 2019, published 2022)
